Test results: US7666879B2, “Imidazo[1,2-A]pyridine compounds as VEGF-R2 inhibitors” (Eli Lilly and Company, priority 2005, dated 2010)
One block for each compound: values may come before it.

Assays:
VEGFR2 (KDR) = molecular target: T1, VEGFR2 (KDR) (Homo sapiens, UniProt P35968); test: KDR-CD in vitro autophosphorylation kinase assay; type: biochemical; conditions: 30 minute preincubation of compound and enzyme; average of at least two separate determinations; 1 μM ATP
T1 construct: The isolated catalytic domain (Amino Acids 807-1356) of VEGFR2; 6xHis (N); made in house; host or cells: Sf9 insect cells (baculovirus, pFASTBac-HIS)
T1 sequence (P35968 807-1356): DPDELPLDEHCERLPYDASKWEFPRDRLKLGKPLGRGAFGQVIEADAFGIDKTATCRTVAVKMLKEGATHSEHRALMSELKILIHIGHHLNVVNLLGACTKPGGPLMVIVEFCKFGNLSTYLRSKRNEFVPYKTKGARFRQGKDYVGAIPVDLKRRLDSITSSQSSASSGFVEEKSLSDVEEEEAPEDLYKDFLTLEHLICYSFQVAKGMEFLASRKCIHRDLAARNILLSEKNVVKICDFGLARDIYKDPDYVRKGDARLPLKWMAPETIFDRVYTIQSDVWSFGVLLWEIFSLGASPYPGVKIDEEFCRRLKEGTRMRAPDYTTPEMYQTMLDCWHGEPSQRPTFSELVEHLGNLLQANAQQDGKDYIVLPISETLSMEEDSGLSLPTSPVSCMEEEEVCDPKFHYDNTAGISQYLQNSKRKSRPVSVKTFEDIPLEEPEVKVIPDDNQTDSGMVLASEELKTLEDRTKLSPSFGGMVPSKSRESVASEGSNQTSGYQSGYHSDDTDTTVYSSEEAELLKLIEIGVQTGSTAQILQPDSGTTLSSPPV
Procedure: The following assay is performed to measure the IC50 values of inhibition of phosphorylation of VEGF-R2 with compounds of the present invention.
Autophosphorylation Enzyme Assay
A. VEGFR2 (KDR) cloning and purification.
The isolated catalytic domain (Amino Acids 807-1356) of VEGFR2 (KDR-CD, cloned from a human heart cDNA library) is cloned by standard PCR procedures (pCR-Script to make plasmid P340) as a BamHI/HindIII fragment using the following primers: Upper: 5′-[…]-3′ and Lower: 5′-[…]-3′, its nucleotide sequence is verified and it is subcloned into the pFASTBac-HIS™ vector system (Gibco-BRL) (to give plasmid B344) for baculovirus expression. (Carroll, et al., J. Biol. Chem, 268, 12837-42 (1993). KDR-CD is expressed as an N-terminal 6×HIS fusion protein in Sf9 cells (Gibco-BRL) and purified according to standard affinity chromatography protocols (For example, Amersham Pharmacia Biotech: Affinity Chromatography Principles and Methods #18-1022-29). Briefly, 15-25 g pellets are lysed in lysis buffer (50 mM Tris pH 7.5, 150 mM NaCl, 0.5% NP40 (CalbioChem) with freshly added 20 mM -mercaptoethanol, 10 mM imidazole, 1 mM PMSF(protease inhibitor (phenylmethanesulfonyl fluoride) from Sigma), 1×EDTA-free complete protease inhibitor (Boehringer Mannheim)) on ice for 30 minutes. The cell lysates are cleared by centrifugation at 30,000 g for 20 minutes at 4° C., filtered through a […] and applied to a NiNTA™ column (Qiagen). Unbound protein is removed with successive RIPA buffer washes (50 mM Tris pH 7.5, 150 mM NaCl, 1% NP40, 1 mM EDTA, 0.25% sodium deoxycholate, 20 mM -mercaptoethanol), lysis buffer washes and finally 1× kinase buffer (KB) washes (100 mM HEPES pH 7.5, 10 mM MnCl2, 5 mM -mercaptoethanol). KDR protein is eluted in 1× KB containing a linear gradient of 200 mM imidazole over 10 column volumes. The peak fractions (based on a SDS-PAGE gel analysis) are combined, concentrated by Centricon™ to ˜1 mg/mL and desalted over an HR26/10 desalting column (Amersham Pharmacia) in 1× KB. This KDR prep is estimated to be ˜40% pure with only KDR tyrosine kinase activity detectable by anti-phosphotyrosine western analysis following the in vitro autophosphorylation reaction.
B. KDR-CD In Vitro Autophosphorylation Kinase Assay
Kinase reactions contain 1 μg total protein in 40 μL reaction volume containing 4% (v/v) DMSO final concentration, 1 μM ATP, 1 uCi/rxn ^33P-ATP (from NEN) in 1×KB. A compound dilution series of 20 μM to 1.0 nM is added to the above reaction to determine compound activity; test compound may be pre-incubated with KDR enzyme for up to 30 minutes at 30° C. prior to addition of the radiolabel. The radiolabeling reaction is carried out at 30° C. for 20 minutes before adding 100 μL 25% TCA with 3 mM ATP to stop the reaction, then precipitated with 50 μL 1 mg/mL BSA. The quenched reactions are transferred to MultiScreen™-FC plates (Millipore) and incubated for 1 hour at room temperature. The plates are filtered, washed 3× with 250 μL 10% TCA and blotted dry. MicroScint™20 (Packard) is added and the plate is counted on a Wallac Microbeta™. Dougher-Vermazen, M. et al., Biochem Biophys Res Commun 205(1): 728-738 (1994). The IC50 values are calculated from a logistic 4-parameter curve fit.
All values are determined using a 30 minute preincubation of compound and enzyme prior to initiating the labeling reaction and represent the average of at least two separate determinations: […]

[1] = test system: PC-3 human prostate adenocarcinoma cells; test: In vivo efficacy in PC-3 prostate tumor xenografts; parameters: species or system mice; key to Mean Tumor Volume: mg, volume calculated as l×w^2×0.536 from caliper diameters; conditions: for Signif. (tumor volume vs vehicle control, two-way ANOVA) / Mean Tumor Volume: oral gavage
Procedure: In Vivo Efficacy in PC-3 Prostate Tumor Xenografts
Male SCID mice (Fox Chase, Taconic laboratories) are implanted s.c. in the rear flank with 0.2 mL of a cell suspension prepared in serum-free media containing 5×10^6 PC-3 human prostate adenocarcinoma cells (obtained from ATCC). Example 130 is prepared as a suspension in 1% CMC/0.25% Tween 80 and administered by oral gavage for 21 days beginning after tumors reach approximately 150-200 mg (volume calculated by l×w^2×0.536 where l is the larger and w is the smaller of perpendicular diameters determined by caliper measurement). Example 130 is administered twice daily (12 hours apart) for the 15, 7.5, and 3.75 mg/kg doses while the 30 mg/kg dose is given once daily. Groups consists of 8 mice each and one group receives 0.2 mL of the CMC/Tween vehicle twice daily as a control.

IC50 (VEGFR2 (KDR)): 42 nM
Compound: CC(C)(C)c1cc(NC(=O)Nc2ccc(-c3cnc4cc(-c5ccncc5)ccn34)cc2F)no1 [Example 130, 1-(5-tert-Butyl-isoxazol-3-yl)-3-[2-fluoro-4-(7-pyridin-4-yl-imidazo[1,2-a]pyridin-3-yl)-phenyl]-urea]
Signif. (tumor volume vs vehicle control, two-way ANOVA) ([1]; 3.75 mg/kg twice daily, Day 55): ** (**: 0.001 < p <= 0.01)
Mean Tumor Volume ([1]; 3.75 mg/kg twice daily, Day 55, PC-3 xenograft in male SCID mice): 268.1
Signif. (tumor volume vs vehicle control, two-way ANOVA) ([1]; 3.75 mg/kg twice daily, Day 57): *** (***: p <= 0.001)
Mean Tumor Volume ([1]; 3.75 mg/kg twice daily, Day 57, PC-3 xenograft in male SCID mice): 310.1
Signif. (tumor volume vs vehicle control, two-way ANOVA) ([1]; 7.5 mg/kg twice daily, Day 55): *** (***: p <= 0.001)
Mean Tumor Volume ([1]; 7.5 mg/kg twice daily, Day 55, PC-3 xenograft in male SCID mice): 100.8
Signif. (tumor volume vs vehicle control, two-way ANOVA) ([1]; 7.5 mg/kg twice daily, Day 57): *** (***: p <= 0.001)
Mean Tumor Volume ([1]; 7.5 mg/kg twice daily, Day 57, PC-3 xenograft in male SCID mice): 86.3
Signif. (tumor volume vs vehicle control, two-way ANOVA) ([1]; 15 mg/kg twice daily, Day 55): *** (***: p <= 0.001)
Mean Tumor Volume ([1]; 15 mg/kg twice daily, Day 55, PC-3 xenograft in male SCID mice): 67.7
Signif. (tumor volume vs vehicle control, two-way ANOVA) ([1]; 15 mg/kg twice daily, Day 57): *** (***: p <= 0.001)
Mean Tumor Volume ([1]; 15 mg/kg twice daily, Day 57, PC-3 xenograft in male SCID mice): 62.2
Signif. (tumor volume vs vehicle control, two-way ANOVA) ([1]; 30 mg/kg once daily, Day 55): *** (***: p <= 0.001)
Mean Tumor Volume ([1]; 30 mg/kg once daily, Day 55, PC-3 xenograft in male SCID mice): 95.7
Signif. (tumor volume vs vehicle control, two-way ANOVA) ([1]; 30 mg/kg once daily, Day 57): *** (***: p <= 0.001)
Mean Tumor Volume ([1]; 30 mg/kg once daily, Day 57, PC-3 xenograft in male SCID mice): 86.8
tumor volume, treatment groups versus control group at study termination ([1]; male SCID mice, oral gavage for 21 days, 15, 7.5, 3.75 mg/kg twice daily, 30 mg/kg once daily, two-way ANOVA): statistically different from the control group (p<0.001)

IC50 (VEGFR2 (KDR)): 106 nM
Compound: CC(C)(C)c1cc(NC(=O)Cc2ccc(-c3cnc4cc(-c5ccc(S(C)(=O)=O)cc5)ccn34)cc2F)no1 [Example 196, N-(5-tert-Butyl-isoxazol-3-yl)-2-{2-fluoro-4-[7-(4-methanesulfonyl-phenyl)-imidazo[1,2-a]pyridin-3-yl]-phenyl}-acetamide]

Continued, compound first:

Compound: O=C(Cc1ccc(-c2cnc3cc(-c4ccncc4)ccn23)cc1)Nc1cccc(C(F)(F)F)c1 [Example 173, 2-[4-(7-Pyridin-4-yl-imidazo[1,2-a]pyridin-3-yl)-phenyl]-N-(3-trifluoromethyl-phenyl)-acetamide]
IC50 (VEGFR2 (KDR)): 26 nM

Compound: CC(C)(C)c1cc(NC(=O)Cc2ccc(-c3cnc4cc(-c5ccncc5)ccn34)cc2)ncn1 [Example 289, N-(6-tert-Butyl-pyrimidin-4-yl)-2-[4-(7-pyridin-4-yl-imidazo[1,2-a]pyridin-3-yl)-phenyl]-acetamide]
IC50 (VEGFR2 (KDR)): 41 nM

Compound: CC(C)(C)c1cc(NC(=O)Cc2ccc(-c3cnc4cc(-c5cn[nH]c5)ccn34)cc2)no1 [Example 303, N-(5-tert-Butyl-isoxazol-3-yl)-2-{4-[7-(1H-pyrazol-4-yl)-imidazo[1,2-a]pyridin-3-yl]-phenyl}-acetamide]
IC50 (VEGFR2 (KDR)): 46 nM

Compound: CC(C)(C)c1cnc(NC(=O)NCc2ccc(-c3cnc4cc(-c5ccncc5)ccn34)cc2)s1 [Example 39, 1-(5-tert-Butyl-thiazol-2-yl)-3-[4-(7-pyridin-4-yl-imidazo[1,2-a]pyridin-3-yl)-benzyl]-urea, methane sulfonate]
IC50 (VEGFR2 (KDR)): 28 nM
